Data reported in paper PMC8012336, “An automated and high-throughput-screening compatible pluripotent stem cell-based test platform for developmental and reproductive toxicity assessment of small molecule compounds” (Cell Biology and Toxicology, 2020).
Converted amounts (≈) assume the structure as drawn.

Tests used:
[1] = Automated CellTiter-Glo luminescent cell viability (cytotoxicity) assay, 5 d; settings: mouse
Method: The CellTiter-Glo® luminescent cell viability assay (Promega, Cat. No. G7573) was automated in 96-well format on the lab automation platform Fluent® (Tecan, Männedorf, Switzerland). The procedure allowed the testing of six compounds in mESC-D3 and NIH/3T3 cells in parallel. On the first day, PBS was dispensed into the peripheral wells of the assay plates (200 μl/well) using the Multiple Channel Arm (MCA). Mouse ES-D3 and NIH/3T3 cells were plated (50 μl/well, 1 × 10^4 cells/ml)) using the Flexible Channel Arm (FCA) and transported into the Cytomat™ 10 (Thermo Fisher Scientific) for incubation using the Robotic Gripper Arm (RGA). A 7-point dilution series of the test compounds and control solutions were prepared in PBS or DMSO (Carl Roth, Cat. No. HN47.1) under the laminar flow, transferred to a 96-well 0.5-ml Masterblock plate (Greiner bio-one, Cat. No. 786261) and placed on the worktable. On the Fluent the compounds were transferred to a 96-well 2-ml Masterblock plate (Greiner bio-one, Cat. No. 780271) and further diluted in growth media using the FCA. Two hours after cell plating compounds and controls were transferred to the assay plate with the FCA (150 μl/well) and transported back in the Cytomat 10. On day three of the assay, the media was exchanged using the MCA: old media was aspirated and dispensed into a 96-deep-well plate (“waste”), freshly prepared compound, and control solution was dispensed into the assay plate. After two more days of incubation, the cell viability was determined using the CellTiter-Glo assay. The assay plates were transported from the Cytomat 10 to the Carousel (Tecan) to adapt to room temperature. After 25 min the cell supernatant was removed partially (80 μl/well) and CellTiter-Glo reagent was dispensed (50 μl/well). The assay plate was placed on a shaker for 1 min and afterward incubated 25 min in the Carousel before the Luminescence signal was detected on the Infinite M1000 Pro plate reader (Tecan).
(§1) Toxicity data from the MTT and CellTiter-Glo Assay was normalized against the vehicle control (100% viability) and plotted against the logarithmic compound concentration.

[2] = Manual MTT cell viability assay, 7 d; type: cell-based, mouse; settings: mouse, manual, in brackets the two individual experiments
Method: (§2) The MTT cell viability assay was performed as described (Seiler and Spielmann [2011]) with modifications. In brief, 96-well cell culture plates were coated with gelatin (0.1%) before plating mESC-D3. All peripheral wells of the assay plate were filled with 200 μl growth media (“blank”). Afterward, NIH/3T3 and mESC-D3 were plated in growth media (1 × 10^4 cells/ml, 50 μl/well). […] Vehicle (PBS) and positive control (5-fluorouracil) wells were also included on all assay plates. Three and 5 days after seeding the cell supernatant was replaced by freshly prepared compound solution (200 μl/well). Seven days after seeding the cell viability was detected. Therefore, the cell supernatant was aspirated from all wells, MTT solution (5 mg/ml) was added (20 μl/well) and the assay plate was incubated for 2 h at 37 °C and 5% CO2 in a humidified atmosphere. Afterward, all liquid was removed from the wells and MTT desorb solution (0.7% SDS in 2-propanol (Carl Roth, Cat. No. 9866.5), pre-warmed to 37 °C) was dispensed (130 μl/well). The assay plate was placed on a shaker for 15 min. Remaining precipitates were suspended by pipetting up and down with a multichannel pipette before measuring the absorption at 570 nm on a microtiter plate reader using 630 nm as a reference wavelength.
as §1

[3] = Manual CellTiter-Glo luminescent cell viability assay (7 d or 5 d); type: cell-based, mouse; settings: mouse, in brackets the two individual experiments
Method: 96-well cell culture plates were coated with gelatin (0.1%) before plating mESC-D3. All peripheral wells of the assay plate were filled with 200 μl growth media. In order to assess compound toxicity on mESC-D3 and NIH/3T3 cells, cell suspensions of NIH/3T3, and mESC-D3 were prepared in growth media (1 × 10^4 cells/ml) and were transferred to all remaining wells (50 μl/well). A 7-point dilution series in growth media was prepared for each test compound and was transferred to the assay plate 2 h after cell seeding (150 μl/well). Afterward, the cells were incubated in a humidified atmosphere at 37 °C and 5% CO2. Three and 5 days after seeding the cell supernatant was replaced by freshly prepared compound solution (200 μl/well). […] The assay plate was placed on a shaker for 1 min and after another 10 min incubation at room temperature in the dark the luminescence signal was detected on a plate reader.
as §1

[4] = system: mESC-D3; assay: Conventional mouse ES-D3 differentiation assay in hanging drop format (petri dish; cardiomyocyte contraction, day 10); type: cell-based; settings: manual; beating cardiomyocytes at day 10; in brackets the two individual experiments
Method: Separate Petri dishes were used for each concentration of test compound, untreated control, and solvent control. […] The EB suspension was incubated for 2 days. On day five of the assay, a fresh compound dilution series was prepared in media and transferred into 24-well cell culture plates (1 ml/well, Greiner bio-one, Cat. No. 662641). A separate 24-well plate was used for each compound concentration, untreated control, and solvent control (24 wells per condition). One EB was transferred from the Petri dish into each well of the 24-well plate. After further 5 days of incubation (= day 10 of the assay), cardiomyocyte contraction was determined in each well under the light microscope.

[5] = Manual human EST cytotoxicity assay, MTT, 5 d; settings: human
Method: (§3) The cytotoxicity assessment with a reduced assay time of 5 days combined with either NADH- or ATP-based detection was also carried out with human induced pluripotent stem cells (hiPSCs). […] Furthermore, differences in the cytotoxicity effects between the hiPSCs and HDFfs were more pronounced than in the mouse cells. Similar to the cytotoxicity-based assay the overall variance in the data is reduced when viability data was obtained by an ATP-based read-out.
as §2
(§4) Figure S1: Step-wise evolution of the cytotoxicity assay towards the use of human cell lines. Related to Figure 2. Cytotoxicity assays were carried out with two compound sets on hiPSC line ZIPi013-E and HDFf, from which they were derived. […] A) 5 day MTT assay and manual handling. B) As in A), but using CellTiter-Glo® viability assay. All points in the graph represent the mean of 6 individual data points, including the standard error.

[6] = Manual human EST cytotoxicity assay, CellTiter-Glo, 5 d; settings: human
Method: as §3
96-well cell culture plates were coated with gelatin (0.1%) before plating mESC-D3. All peripheral wells of the assay plate were filled with 200 μl growth media. In order to assess compound toxicity on mESC-D3 and NIH/3T3 cells, cell suspensions of NIH/3T3, and mESC-D3 were prepared in growth media (1 × 10^4 cells/ml) and were transferred to all remaining wells (50 μl/well). A 7-point dilution series in growth media was prepared for each test compound and was transferred to the assay plate 2 h after cell seeding (150 μl/well). Afterward, the cells were incubated in a humidified atmosphere at 37 °C and 5% CO2. Three and 5 days after seeding the cell supernatant was replaced by freshly prepared compound solution (200 μl/well). Seven days after seeding the assay plate was taken out of the incubator and located at room temperature for 10 min, before cell supernatant was aspirated (80 μl/well) and CellTiter-Glo® reagent was dispensed (50 μl/well). The assay plate was placed on a shaker for 1 min and after another 10 min incubation at room temperature in the dark the luminescence signal was detected on a plate reader.
as §4

[7] = system: mESC-D3; parameters: method as in Scholz et al. [1999]; settings: ZEBET value printed beside hanging drop differentiation result; ref Scholz et al. [1999]; cited from earlier work
[8] = system: mESC-D3 and NIH/3T3 cells; settings: manual murine EST assay; prediction model of Seiler and Spielmann 2011
[9] = system: mESC-D3; parameters: method as in Scholz et al. [1999]; settings: ZEBET value, 7 d result; ref Scholz et al. [1999]; cited from earlier work
[10] = system: NIH/3T3; parameters: method as in Scholz et al. [1999]; settings: ZEBET value, 7 d result; ref Scholz et al. [1999]; cited from earlier work
[11] = system: mESC-D3; type: cell-based, mouse
Method: As an alternative to the morphological analysis at day 10, differentiation can be analyzed at day 7 of the assay by flow cytometry using the molecular flow EST (Buesen et al. [2009]). Previously, staining of cardiomyocytes was performed using an unconjugated primary monoclonal antibody directed against the sarcomeric MHC (clone MF20), followed by binding of a secondary biotin-conjugated goat anti-mouse IgG antibody which is then detected with the fluorochrome PE-SA (phycoerythrin-conjugated streptavidin) (Seiler and Spielmann [2011]). […] Of note, these experiments were performed in parallel with the same batch of spontaneously differentiated mESCs.
Embryoid bodies were formed in hanging drops (Petri dish) as already described. On day 5 of the assay, the EBs were transferred into a larger Petri dish and incubated for two more days at 37 °C, 5% CO2, and 95% humidity. Afterward, the EBs were dissociated using the Embryoid Body Dissociation Kit (Miltenyi Biotec, Cat. No. 130-096-348). EBs from two Petri dishes were harvested in one 15 ml tube and washed once with 10 ml PBS. The supernatant was discarded after centrifugation and a pre-warmed enzyme mix was added. The EB/enzyme mix was incubated for 10 min at 37 °C, dissociated for 1 min with a 1000 μl pipette, incubated for 5 min and mechanically dissociated again for 1 min. After the addition of 3 ml PBS, the cell suspension was passed through a 70-μm filter into a new 15-ml tube. The filter was then washed with 3 ml PBS and discarded afterward. The cell suspension was centrifuged for 5 min at 300 rpm. The supernatant was discarded afterward, cells were suspended in PBS and counted. For viability staining, 10^6 cells were suspended in 100 μl staining reagent (LIVE/DEAD™ Fixable Green Dead Stain Kit, Life Technologies, Cat. No. L34969), incubated for 30 min at 4 °C and washed with 1 ml PBS. For fixation, cells were suspended in 100 μl fixation buffer (BioLegend, Cat. No. 420801) and incubated 20 min at room temperature. For the intracellular staining, cells were washed twice with 1 ml permeabilization buffer (BioLegend, Cat. No. 421002) and suspended in 50 μl permeabilization buffer supplemented with 50 μl of pre-diluted (1:5) antibody (mouse IgG2B anti-human Myosin Heavy Chain APC-conjugated, mouse IgG2B APC-conjugated isotype control, R&D Systems, Cat. No. IC4470A). After 1 h incubation at room temperature cells were washed twice with 1 ml permeabilization buffer and suspended in FACS buffer. Within 2–3 h samples were measured on an LSR II flow cytometer (Beckton Dickinson). Data analysis was done using FlowJo software (Version 10.0.8; Tree Star).

[12] = mESC-D3 cells (mouse embryonic stem cells)
[13] = mESC-D3 cells, read-out: Cytotoxicity assay MTT, 7 d IC50 mESC-D3
[14] = mESC-D3 cells, read-out: Cytotoxicity assay CTG, 5 d IC50 mESC-D3
[15] = mESC-D3 cells, read-out: Cytotoxicity assay CTG, 7 d IC50 mESC-D3
[16] = HDFf (human dermal fibroblasts of fetal origin)
[17] = NIH/3T3 cells, read-out: Cytotoxicity assay MTT, 7 d IC50 NIH/3T3
[18] = NIH/3T3 cells, read-out: Cytotoxicity assay CTG, 5 d IC50 NIH/3T3
[19] = NIH/3T3 cells, read-out: Cytotoxicity assay CTG, 7 d IC50 NIH/ 3T3

Row | SMILES | IC50 at 5 d [1, 12] [µg/mL] | IC50 at 7 d [2, 13] [µg/mL] | IC50 at 5 d [3, 14] [µg/mL] | IC50 at 7 d [3, 15] [µg/mL] | Differentiation assay in hanging drop (petri dish) ID50 mESC-D3 [4] | IC50 at 5 d [5, 16] [µg/mL] | IC50 at 5 d ([5]; hiPSC line ZIPi013-E) [µg/mL] | IC50 at 5 d [6, 16] [µg/mL] | IC50 at 5 d ([6]; hiPSC line ZIPi013-E) [µg/mL] | ID50 mESC-D3 (ZEBET) [7] [µg/mL] | IC50 at 5 d ([1]; NIH/3T3 cells) [µg/mL] | IC50 at 7 d [2, 17] [µg/mL] | IC50 at 5 d [3, 18] [µg/mL] | IC50 at 7 d [3, 19] [µg/mL] | Compound classification [8] | IC50 mESC-D3 (ZEBET) [9] [µg/mL] | IC50 NIH/3T3 (ZEBET) [10] [µg/mL] | ID50 FACS (MHC-positive cells) ([11]; flow cytometry, day 7) [µg/mL] | MHC-positive cells ([11]; treated with 10 μg/ml, untreated 31% (hydroxyurea), 26% (fumonisine B1)) [%]
1 | Cn1c(=O)c2c(ncn2C)n(C)c1=O [Caffeine, caffeine] | 138 (≈ 711 µM) | 152 (≈ 783 µM) | 172 (≈ 886 µM) | 119 (≈ 613 µM) | 130 (130; > 200) µg/ml | 358 (≈ 1850 µM) | 13.3 (≈ 68.3 µM) | 412 (≈ 2120 µM) | 43.6 (≈ 225 µM) | 185 (≈ 953 µM) |  |  |  |  |  |  |  |  | 
2 | O=c1[nH]cc(F)c(=O)[nH]1 [5-Fluorouracil, 5-fluorouracil] | 0.0627 (≈ 0.482 µM) | 0.0395 (≈ 0.304 µM) | 0.0493 (≈ 0.379 µM) | 0.0681 (≈ 0.524 µM) |  | 0.195 (≈ 1.5 µM) | 0.223 (≈ 1.72 µM) | 0.186 (≈ 1.43 µM) | 0.0166 (≈ 0.128 µM) | 0.0289 (≈ 0.222 µM) | 0.11 (≈ 0.846 µM) | 0.116 (≈ 0.892 µM) | 0.0958 (≈ 0.736 µM) | 0.128 (≈ 0.984 µM) | strong embryotoxicity | 0.103 (≈ 0.792 µM) | 0.17 (≈ 1.31 µM) |  | 
3 | CCCC[C@@H](C)[C@@H](OC(=O)C[C@@H](CC(=O)O)C(=O)O)[C@H](C[C@@H](C)C[C@H](O)CCCC[C@@H](O)C[C@H](O)[C@H](C)N)OC(=O)C[C@@H](CC(=O)O)C(=O)O [Fumonisin, fumonisine B1] |  |  |  |  |  |  |  |  |  |  |  |  |  |  |  |  |  | 2.26 (≈ 3.13 µM) | 3
4 | C[C@@H]1C[C@H]2[C@@H]3CCC4=CC(=O)C=C[C@]4(C)[C@@]3(F)[C@@H](O)C[C@]2(C)[C@@]1(O)C(=O)CO [Dexamethasone, dexamethasone] | 18.7 (≈ 47.6 µM) | 23.5 (≈ 59.9 µM) | 15.7 (≈ 40 µM) | 20.8 (≈ 53 µM) | 25.7 (29.1; 22.3) µg/ml |  |  |  |  | 18.3 (≈ 46.6 µM) | > 50 | 49.2 (≈ 125 µM) | 34.8 (≈ 88.7 µM) | 35.2 (≈ 89.7 µM) | weak embryotoxicity | 23 (≈ 58.6 µM) | 26 (≈ 66.2 µM) |  | 
